Data taken from patent publication US20110112151A1, “COMPOUND CAPABLE OF INHIBITING 11-BETA HYDROXYSTERIOD DEHYDROGENASE” (priority 2008, published 2011).
Like-named read-outs stand apart in the source and are kept apart here.

Key:
11β-HSD1 = target: T1, 11β-HSD1 (Homo sapiens, UniProt P28845); test: 11β-HSD1 HEK assay (cell based assay, SPA)
T1 construct: expressed in transfected cells; host or cells: HEK 293 (stably transfected, HEK 293/HSD11B1)
Experimental: 11β-HSD1 HEK Assay Protocol (Cell Based Assay)
11β-HSD1 activity is measured in whole HEK 293 cells stably transfected with the HSD11B1 gene. Cells are incubated in 96-well microplates in the presence of tritiated substrate. Enzyme activity is determined by measuring the amount of tritated product by scintillation proximity assay (SPA). Assay plates contain internal high and low controls to allow calculation of percentage inhibition.
1. […] 2. When the cells are 80% confluent the medium is removed from each well. 100 μl fresh, serum-free, medium containing ^3H-cortisone and test compound in 1% DMSO is added to each well*. Control wells are also dispensed. […] 3. The plate is incubated at 37° C. for the required time period. 4. 50 μl of media is removed from each well and transferred to a microplate containing 100 μl of a pre-incubated mixture of anti-cortisol antibody and SPA bead. The mixture is incubated with gentle shaking until equilibrium is reached, before transferring to a scintillation counter to establish the enzyme activity in each sample.
10 μl of compound is dispensed into each well of a 96-well microplate in 10% DMSO at 100 μM concentration. 90 μl media containing ^3H-cortisone is added to each well. The compound/media/substrate mixture is then transferred to the assay plate containing the cells. […]

[1] = HEK293, at 1 μM, whole HEK 293 cells stably transfected with the HSD11B1 gene, 3H-cortisone substrate, read-out: Activity (inhibition of 11β-HSD1)

T1 sequence (P28845 whole entry): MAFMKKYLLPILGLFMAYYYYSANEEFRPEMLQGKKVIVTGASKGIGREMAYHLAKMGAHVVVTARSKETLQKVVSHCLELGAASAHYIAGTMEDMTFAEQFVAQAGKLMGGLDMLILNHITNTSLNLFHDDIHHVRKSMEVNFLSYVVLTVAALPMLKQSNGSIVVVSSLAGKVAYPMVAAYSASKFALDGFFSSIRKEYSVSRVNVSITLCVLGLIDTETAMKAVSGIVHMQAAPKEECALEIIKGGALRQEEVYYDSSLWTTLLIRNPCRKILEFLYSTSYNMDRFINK

| inhibition at 1 µM (11β-HSD1; [1]) [%] | melting point [°C] | Structure (SMILES) | inhibition at 1 µM (11β-HSD1; HEK293, read-out: Activity (inhibition of 11β-HSD1)) [%] |
| --- | --- | --- | --- |
| > 60 | 38 to 39 | O=C(CSCc1ccccn1)C12CC3CC(CC(C3)C1)C2 [Example 11, 1-Adamantan-1-yl-2-(pyridin-2-ylmethylsulfanyl)-ethanone] | – |
| > 60 | 119 to 123 | O=C(C[S+]([O-])Cc1ccncc1)C12CC3CC(CC(C3)C1)C2 (stereo not drawn) [Example 84, 1-Adamantan-1-yl-2-(pyridin-4-ylmethanesulfinyl)-ethanone] | – |
| > 60 | 107 to 108.5 | O=C(/C=C/c1cccnc1)C12CC3CC(CC(C3)C1)C2 [Example 38, 1-Adamantan-1-yl-3-pyridin-3-yl-propenone] | – |
| 20 to 60 | 138 to 139 | O=C(CS(=O)(=O)c1ccc(C(F)(F)F)cn1)C12CC3CC(CC(C3)C1)C2 [Example 67, 1-Adamantan-1-yl-2-(5-trifluoromethyl-pyridine-2-sulfonyl)-ethanone] | – |
| > 60 | 150 to 151 | CN(C)c1nnc(SCC(=O)C23CC4CC(CC(C4)C2)C3)s1 [Example 104, 1-(Adamantan-1-yl)-2-{[5-(dimethylamino)-1,3,4-thiadiazol-2-yl]sulfanyl}ethan-1-one] | – |
| > 60 | 172.5 to 174 | O=C(Nc1nnc([S+]([O-])CC(=O)C23CC4CC(CC(C4)C2)C3)s1)C1CC1 (stereo not drawn) [Example 96, N-(5-{[2-(Adamantan-1-yl)-2-oxoethane]sulfinyl}-1,3,4-thiadiazol-2-yl)cyclopropanecarboxamide] | – |
| > 60 | 156 to 157 | Cn1c(SCC(=O)C23CC4CC(CC(C4)C2)C3)nnc1-c1cccs1 [Example 102, 1-(Adamantan-1-yl)-2-{[4-methyl-5-(thiophen-2-yl)-4H-1,2,4-triazol-3-yl]sulfanyl}ethan-1-one] | – |
| > 60 | 141 to 142 | O=C(CSc1ccc(C(F)(F)F)cn1)C12CC3CC(CC(C3)C1)C2 [Example 66, 1-Adamantan-1-yl-2-(5-trifluoromethyl-pyridin-2-ylsulfanyl)-ethanone] | – |
| > 60 | 112 to 113 | Cn1nnnc1SCC(=O)C12CC3CC(CC(C3)C1)C2 [Example 92, 1-(Adamantan-1-yl)-2-[(1-methyl-1,2,3,4-tetrazol-5-yl)sulfanyl]ethanone] | – |
| > 60 | 75 to 76 | Cc1cccc([S+]([O-])CC(=O)C23CC4CC(CC(C4)C2)C3)n1 (stereo not drawn) [Example 31, 1-(adamantan-1-yl)-2-[(6-methylpyridine-2-)sulfinyl]ethan-1-one] | – |
| > 60 | 182 to 183.5 | O=C(CS(=O)(=O)Cc1ccc[n+]([O-])c1)C12CC3CC(CC(C3)C1)C2 [Example 10, 1-Adamantan-1-yl-2-(1-oxy-pyridin-3-ylmethanesulfonyl)-ethanone] | – |
| > 60 | 225 to 227.5 | O=C(CS(=O)(=O)Cc1cccc[n+]1[O-])C12CC3CC(CC(C3)C1)C2 [Example 76, 1-Adamantan-1-yl-2-(1-oxy-pyridin-2-ylmethanesulfonyl)-ethanone] | – |
| > 60 | 143 to 144 | O=C(CS(=O)(=O)c1ccncc1)C12CC3CC(CC(C3)C1)C2 [Example 32, 1-(adamantan-1-yl)-2-(pyridine-4-sulfonyl)ethan-1-one] | – |
| > 60 | 133.5 to 135 | CSc1nnc(SCC(=O)C23CC4CC(CC(C4)C2)C3)s1 [Example 106, 1-(Adamantan-1-yl)-2-{[5-(methylsulfanyl)-1,3,4-thiadiazol-2-yl]sulfanyl}ethan-1-one] | – |
| > 60 | 135.5 to 137 | CCNC(=O)c1ccc(SCC(=O)C23CC4CC(CC(C4)C2)C3)nc1 [Example 34, 6-{[2-(adamantan-1-yl)-2-oxoethyl]sulfanyl}-N-ethylpyridine-3-carboxamide] | – |
| > 60 | 115.5 to 116.5 | Cc1cccc(SCC(=O)C23CC4CC(CC(C4)C2)C3)n1 [Example 26, 1-Adamantan-1-yl-2-(6-methyl-pyridin-2-ylsulfanyl)-ethanone] | – |
| > 60 | 184 to 185.5 | CNC(=O)c1ccc(SCC(=O)C23CC4CC(CC(C4)C2)C3)nc1 [Example 36, 6-(2-Adamantan-1-yl-2-oxo-ethylsulfanyl)-N-methyl-nicotinamide] | – |
| > 60 | 96 to 97.5 | Cn1c(SCC(=O)C23CC4CC(CC(C4)C2)C3)nnc1C1CC1 [Example 101, 1-(Adamantan-1-yl)-2-[(5-cyclopropyl-4-methyl-4H-1,2,4-triazol-3-yl)sulfanyl]ethan-1-one] | – |
| 20 to 60 | – | Cn1ccnc1S(=O)(=O)CC(=O)C1(c2ccc(Cl)cc2)CCCC1 [Example 43, 1-[1-(4-Chloro-phenyl)-cyclopentyl]-2-(1-methyl-1H-imidazole-2-sulfonyl)-ethanone] | – |
| > 60 | – | O=C(CS(=O)(=O)Cc1ccccn1)C12CC3CC(CC(C3)C1)C2 [Example 16, 1-Adamantan-1-yl-2-(pyridin-2-ylmethanesulfonyl)-ethanone] | – |

| inhibition at 1 µM (11β-HSD1; [1]) [%] | melting point [°C] | Structure (SMILES) | inhibition at 1 µM (11β-HSD1; HEK293, read-out: Activity (inhibition of 11β-HSD1)) [%] |
| --- | --- | --- | --- |
| < 20 | – | O=C(CS(=O)(=O)c1ccccn1)C1(c2ccc(Cl)cc2)CCC1 [Example 22] | – |
| – | – | Cc1nnc(S(=O)(=O)CC(=O)C23CC4CC(CC(C4)C2)C3)s1 [Example 79, 1-Adamantan-1-yl-2-(5-methyl-[1,3,4]thiadiazole-2-sulfonyl)-ethanone] | > 60 |
| 20 to 60 | – | O=C(COc1ccc(C(F)(F)F)cn1)C12CC3CC(CC(C3)C1)C2 [Example 55, 1-Adamantan-1-yl-2-(5-trifluoromethyl-pyridin-2-yloxy)-ethanone] | – |
| < 20 | – | Cc1cc(C)c(C(=O)COc2cccnc2)c(C)c1 [Example 72, 2-(Pyridin-3-yloxy)-1-(2,4,6-trimethyl-phenyl)-ethanone] | – |
| < 20 | – | Cn1ccnc1S(=O)(=O)CC(=O)C1(c2ccc(Cl)cc2)CCC1 [Example 24, 1-[1-(4-Chloro-phenyl)-cyclobutyl]-2-(1-methyl-1H-imidazole-2-sulfonyl)-ethanone] | – |
| > 60 | – | COc1cncc(COCC(=O)C23CC4CC(CC(C4)C2)C3)c1 [Example 98, 1-Adamantan-1-yl-2-(5-methoxy-pyridin-3-ylmethoxy)-ethanone] | – |
| 20 to 60 | – | O=C(CSc1ccccn1)C1(c2ccc(Cl)cc2)CCCCC1 [Example 47, 1-[1-(4-Chloro-phenyl)-cyclohexyl]-2-(pyridin-2-ylsulfanyl)-ethanone] | – |
| 20 to 60 | – | O=C(CS(=O)(=O)c1ccccn1)C1(c2ccc(Cl)cc2)CCCCC1 [Example 48, 1-[1-(4-Chloro-phenyl)-cyclohexyl]-2-(pyridine-2-sulfonyl)-ethanone] | – |
| < 20 | – | Cn1ccnc1[S+]([O-])CC(=O)C1(c2ccc(Cl)cc2)CCC1 (stereo not drawn) [Example 25, 1-[1-(4-Chloro-phenyl)-cyclobutyl]-2-(1-methyl-1H-imidazole-2-sulfinyl)-ethanone] | – |
| 20 to 60 | – | Cn1ccnc1SCC(=O)C1(c2ccc(Cl)cc2)CCCC1 [Example 41, 1-[1-(4-Chloro-phenyl)-cyclopentyl]-2-(1-methyl-1H-imidazol-2-ylsulfanyl)-ethanone] | – |
| > 60 | – | O=C(CS(=O)(=O)Cc1cccnc1)C12CC3CC(CC(C3)C1)C2 [Example 9, 1-Adamantan-1-yl-2-(pyridin-3-ylmethanesulfonyl)-ethanone] | – |
| > 60 | – | COc1cccnc1COCC(=O)C12CC3CC(CC(C3)C1)C2 [Example 86, 2-((3-Methoxypyridin-2-yl)methoxy)-1-adamantylethanone] | – |
| < 20 | – | O=C(C[S+]([O-])c1ccccn1)C1(c2ccc(Cl)cc2)CCCCC1 (stereo not drawn) [Example 49, 1-[1-(4-Chloro-phenyl)-cyclohexyl]-2-(pyridine-2-sulfinyl)-ethanone] | – |
| 20 to 60 | – | O=C(C[S+]([O-])c1ccc(C(F)(F)F)cn1)C12CC3CC(CC(C3)C1)C2 (stereo not drawn) [Example 68, 1-Adamantan-1-yl-2-(5-trifluoromethyl-pyridine-2-sulfinyl)-ethanone] | – |
| < 20 | – | O=C(CSc1ccccn1)C1(c2ccc(Cl)cc2)CC1 [Example 4, 1-[1-(4-Chloro-phenyl)-cyclopropyl]-2-(pyridin-2-ylsulfanyl)-ethanone] | – |
| > 60 | – | O=C(C[S+]([O-])c1ccncc1)C12CC3CC(CC(C3)C1)C2 (stereo not drawn) [Example 33, 1-(adamantan-1-yl)-2-(pyridine-4-sulfinyl)ethan-1-one] | – |
| < 20 | – | Cc1cc(C)c(C(=O)CS(=O)(=O)c2ccccn2)c(C)c1 [Example 75, 2-(Pyridine-2-sulfonyl)-1-(2,4,6-trimethyl-phenyl)-ethanone] | – |
| > 60 | – | O=C(C[S+]([O-])Cc1ccc(Cl)nc1)C12CC3CC(CC(C3)C1)C2 (stereo not drawn) [Example 65, 1-Adamantan-1-yl-2-(6-chloro-pyridin-3-ylmethanesulfinyl)-ethanone] | – |
| 20 to 60 | – | O=C(COc1cncc(Cl)c1)C12CC3CC(CC(C3)C1)C2 [Example 57, 1-Adamantan-1-yl-2-(5-chloro-pyridin-3-yloxy)-ethanone] | – |
